The source of these data is patent US11285156B2, “Substituted piperazines as KRAS G12C inhibitors” (Amgen Inc., priority 2018, dated 2022).

The assay addresses GDP-bound KRAS protein (aa 1-169), containing both G12C and C118A amino acid substitutions (Homo sapiens (Human), UniProt P01116, C118A/G12C). The assay is described as follows: Coupled nucleotide exchange assay (SOS-mediated nucleotide exchange, AlphaScreen). In kind it is biochemical. Conditions: 5 min compound pre-incubation; for IC50: read-out: Coupled exchange IC50 (5 min; μM). (In general: Alpha assays give light when donor and acceptor beads are brought close together.)

Chain of GDP-bound KRAS protein (aa 1-169), containing both G12C and C118A amino acid substitutions (P01116 other isoform, or with tags, fused parts or gaps G12C/C118A): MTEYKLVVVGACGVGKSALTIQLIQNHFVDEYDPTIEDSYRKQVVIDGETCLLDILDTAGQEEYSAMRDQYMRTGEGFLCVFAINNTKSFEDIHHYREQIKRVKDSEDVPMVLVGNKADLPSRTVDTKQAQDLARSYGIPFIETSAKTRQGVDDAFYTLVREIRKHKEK

The term IC50 denotes the midpoint of a concentration-inhibition curve. Consider `C=CC(=O)N1C[C@H](C)N(c2nc(=O)n(-c3c(C)ccnc3C(C)C)c3nc(N4CCCC4C(F)F)c(Cl)cc23)C[C@H]1C` (atropisomer, axis not shown; (M)) [Example 69-10, (M)-6-Chloro-7-[2-(difluoromethyl)pyrrolidin-1-yl]-4-[(2S,5R)-2,5-dimethyl-4-prop-2-enoyl-piperazin-1-yl]-1-(2-isopropyl-4-methyl-3-pyridyl)pyrido[2,3-d]pyrimidin-2-one], for which the IC50 turned out to be 11 µM.

Turning to `C=CC(=O)N1C[C@H](C)N(c2nc(=O)n(-c3c(C)ccnc3C(C)C)c3nc(N4CCCCC4)c(Cl)cc23)C[C@H]1C` (atropisomer, axis not shown; (M)) [Example 69-11, (M)-6-Chloro-4-[(2S,5R)-2,5-dimethyl-4-prop-2-enoyl-piperazin-1-yl]-1-(2-isopropyl-4-methyl-3-pyridyl)-7-(1-piperidyl)pyrido[2,3-d]pyrimidin-2-one], the IC50 is 1.14 µM.

For the molecule `[2H]C1([2H])N(C(=O)C=C)C([2H])([2H])C([2H])([2H])N(c2nc(=O)n(-c3c(C)ccnc3C(C)C)c3nc(-c4c(O)cccc4F)c(F)cc23)C1([2H])[2H]` (atropisomer, axis not shown; (M)) [Example 72-22, (M)-6-Fluoro-7-(2-fluoro-6-hydroxy-phenyl)-1-(2-isopropyl-4-methyl-3-pyridyl)-4-(2,2,3,3,5,5,6,6-octadeuterio-4-prop-2-enoyl-piperazin-1-yl)pyrido[2,3-d]pyrimidin-2-one], the “Coupled exchange IC50 (5 min; μM)” value was 0.408 µM.

On to `C=CC(=O)N1C[C@H](C)N(c2nc(=O)n(-c3c(C)ccnc3C(C)C)c3nc(-c4ccccc4P(C)(C)=O)c(F)cc23)C[C@H]1C` (atropisomer, axis not shown; (M)) [Example 72-23, (M)-7-(2-Dimethylphosphorylphenyl)-4-[(2S,5R)-2,5-dimethyl-4-prop-2-enoyl-piperazin-1-yl]-6-fluoro-1-(2-isopropyl-4-methyl-3-pyridyl)pyrido[2,3-d]pyrimidin-2-one], for which the 50% inhibitory concentration (IC50) worked out at 0.647 µM.

As to `C=CC(=O)N1[C@@H]2CC[C@H]1CN(c1nc(=O)n(-c3c(C)ccnc3C(C)C)c3nc(-c4ccccc4F)c(Cl)cc13)C2` (atropisomer, axis not shown; (M)) [Example 79-10, (M)-6-Chloro-7-(2-fluorophenyl)-1-(2-isopropyl-4-methyl-3-pyridyl)-4-[(1S,5R)-8-prop-2-enoyl-3,8-diazabicyclo[3.2.1]octan-3-yl]pyrido[2,3-d]pyrimidin-2-one], the IC50 was 2.78 µM.

`C=CC(=O)N1C[C@@H]2CC[C@H]1CN2c1nc(=O)n(-c2c(C)ccnc2C(C)C)c2nc(-c3ccccc3F)c(Cl)cc12` (atropisomer, axis not shown; (M)) [Example 79-11, (M)-6-Chloro-7-(2-fluorophenyl)-1-(2-isopropyl-4-methyl-3-pyridyl)-4-[(1S,4S)-5-prop-2-enoyl-2,5-diazabicyclo[2.2.2]octan-2-yl]pyrido[2,3-d]pyrimidin-2-one]: the IC50 is 26.7 µM.

Regarding `C=CC(=O)N1C[C@H]2CCC[C@@H](C1)N2c1nc(=O)n(-c2c(C)ccnc2C(C)C)c2nc(-c3ccccc3F)c(Cl)cc12` (atropisomer, axis not shown; (M)) [Example 79-12, (M)-6-Chloro-7-(2-fluorophenyl)-1-(2-isopropyl-4-methyl-3-pyridyl)-4-[(1S,5R)-3-prop-2-enoyl-3,9-diazabicyclo[3.3.1]nonan-9-yl]pyrido[2,3-d]pyrimidin-2-one], the 50% inhibitory concentration (IC50) is 5.46 µM.

On to `C=CC(=O)N1C[C@H](C)N(c2nc(=O)n(-c3c(C)ccnc3C(C)C)c3nc(C=C(C)C)c(Cl)cc23)C[C@H]1C` (atropisomer, axis not shown; (M)) [Example 92-8, (M)-6-Chloro-4-[(2S,5R)-2,5-dimethyl-4-prop-2-enoyl-piperazin-1-yl]-1-(2-isopropyl-4-methyl-3-pyridyl)-7-(2-methylprop-1-enyl)pyrido[2,3-d]pyrimidin-2-one], for which the IC50 came to 0.985 µM.

Turning to `C=CC(=O)N1C[C@H](C)N(c2nc(=O)n(-c3c(C)ccnc3C(C)C)c3nc(C4=CCOCC4)c(Cl)cc23)C[C@H]1C` (atropisomer, axis not shown; (M)) [Example 92-9, (M)-6-Chloro-7-(3,6-dihydro-2H-pyran-4-yl)-4-[(2S,5R)-2,5-dimethyl-4-prop-2-enoyl-piperazin-1-yl]-1-(2-isopropyl-4-methyl-3-pyridyl)pyrido [2,3-d]pyrimidin-2-one], the IC50 turned out to be 8.53 µM.

Regarding `C=CC(=O)N1C[C@H](C)N(c2nc(=O)n(-c3c(C)ccnc3C(C)C)c3nc(-c4cccc5c4NC(=O)C5)c(Cl)cc23)C[C@H]1C` (atropisomer, axis not shown; (M)) [Example 92-20, (M)-6-Chloro-4-[(2S,5R)-2,5-dimethyl-4-prop-2-enoyl-piperazin-1-yl]-1-(2-isopropyl-4-methyl-3-pyridyl)-7-(2-oxoindolin-7-yl)pyrido[2,3-d]pyrimidin-2-one], the IC50 was 0.403 µM.

Turning to `C=CC(=O)N1C[C@H](C)N(c2nc(=O)n(-c3c(C)ccnc3C(C)C)c3[nH]c(=O)c(Cl)cc23)C[C@H]1C` (atropisomer, axis not shown; (M)) [Example 92-22, (M)-6-Chloro-4-[(2S,5R)-2,5-dimethyl-4-prop-2-enoyl-piperazin-1-yl]-1-(2-isopropyl-4-methyl-3-pyridyl)-8H-pyrido[2,3-d]pyrimidine-2,7-dione], the IC50 is 2.94 µM.

In the case of `C=CC(=O)N1C[C@H](C)N(c2nc(=O)n(-c3c(C)ccnc3C(C)C)c3nc(-c4cccc5cn[nH]c45)c(Cl)cc23)C[C@H]1C` (atropisomer, axis not shown; (M)) [Example 92-30, (M)-6-Chloro-4-[(2S,5R)-2,5-dimethyl-4-prop-2-enoyl-piperazin-1-yl]-7-(1H-indazol-7-yl)-1-(2-isopropyl-4-methyl-3-pyridyl)pyrido [2,3-d]pyrimidin-2-one], the concentration for half-maximal inhibition (IC50) came to 0.479 µM.

`C=CC(=O)N1C[C@H](C)N(c2nc(=O)n(-c3c(C)ccnc3C(C)C)c3nc(-c4ccccc4NC(=O)C(C)(C)C)c(Cl)cc23)C[C@H]1C` (atropisomer, axis not shown; (M)) [Example 92-35, (M)-N-[2-[6-Chloro-4-[(2S,5R)-2,5-dimethyl-4-prop-2-enoyl-piperazin-1-yl]-1-(2-isopropyl-4-methyl-3-pyridyl)-2-oxo-pyrido[2,3-d]pyrimidin-7-yl]phenyl]-2,2-dimethyl-propanamide]: the IC50 is 0.758 µM.

`C=CC(=O)N1C[C@H](C)N(c2nc(=O)n(-c3c(C)ccnc3C(C)C)c3nc(-c4ccsc4)c(Cl)cc23)C[C@H]1C` (atropisomer, axis not shown; (M)) [Example 92-50, (M)-6-Chloro-4-[(2S,5R)-2,5-dimethyl-4-prop-2-enoyl-piperazin-1-yl]-1-(2-isopropyl-4-methyl-3-pyridyl)-7-(3-thienyl)pyrido[2,3-d]pyrimidin-2-one]: the IC50 is 1.1 µM.

`C=CC(=O)N1C[C@H](C)N(c2nc(=O)n(-c3c(C)ccnc3C(C)C)c3nc(-c4cccc(C(F)(F)F)c4)c(Cl)cc23)C[C@H]1C` (atropisomer, axis not shown; (M)) [Example 92-56, (M)-6-Chloro-4-[(2S,5R)-2,5-dimethyl-4-prop-2-enoyl-piperazin-1-yl]-1-(2-isopropyl-4-methyl-3-pyridyl)-7-[3-(trifluoromethyl)phenyl]pyrido [2,3-d]pyrimidin-2-one]: the IC50 stood at 0.591 µM.
